Source: the NIST ThermoML archive (doi:10.1021/je0499317)
Numbers after ± are expanded uncertainties.

Test: excess molar enthalpy (molar enthalpy of mixing); xn = mol fraction of the nth substance listed
Settings: 298.15 K, 101.33 kPa, Liquid

## CCCCCCCCCC#N [1-decanenitrile] + CSCS(C)=O
x2 = 0.02311
  excess molar enthalpy: 0.0228 ± 0.000717 kcal/mol
x2 = 0.02808
  excess molar enthalpy: 0.029 ± 0.000813 kcal/mol
x2 = 0.05736
  excess molar enthalpy: 0.0595 ± 0.00129 kcal/mol
x2 = 0.07887
  excess molar enthalpy: 0.0808 ± 0.00163 kcal/mol
x2 = 0.1059
  excess molar enthalpy: 0.108 ± 0.00203 kcal/mol
x2 = 0.1267
  excess molar enthalpy: 0.128 ± 0.00234 kcal/mol
x2 = 0.1515
  excess molar enthalpy: 0.149 ± 0.00263 kcal/mol
x2 = 0.186
  excess molar enthalpy: 0.176 ± 0.00311 kcal/mol
x2 = 0.2278
  excess molar enthalpy: 0.204 ± 0.00359 kcal/mol
x2 = 0.2893
  excess molar enthalpy: 0.232 ± 0.00406 kcal/mol
x2 = 0.3382
  excess molar enthalpy: 0.251 ± 0.0043 kcal/mol
x2 = 0.3657
  excess molar enthalpy: 0.259 ± 0.0043 kcal/mol
x2 = 0.4935
  excess molar enthalpy: 0.272 ± 0.00454 kcal/mol
x2 = 0.5572
  excess molar enthalpy: 0.269 ± 0.00454 kcal/mol
x2 = 0.6575
  excess molar enthalpy: 0.251 ± 0.0043 kcal/mol
x2 = 0.7014
  excess molar enthalpy: 0.239 ± 0.00406 kcal/mol
x2 = 0.7482
  excess molar enthalpy: 0.22 ± 0.00382 kcal/mol
x2 = 0.7873
  excess molar enthalpy: 0.201 ± 0.00359 kcal/mol
x2 = 0.8609
  excess molar enthalpy: 0.158 ± 0.00287 kcal/mol
x2 = 0.9468
  excess molar enthalpy: 0.0728 ± 0.00151 kcal/mol
x2 = 0.976
  excess molar enthalpy: 0.0352 ± 0.000908 kcal/mol
x2 = 0.988
  excess molar enthalpy: 0.0193 ± 0.000669 kcal/mol

## CCCCCCC#N [heptanenitrile] + C[S+](C)[O-]
x2 = 0.02225
  excess molar enthalpy: 0.0157 ± 0.000621 kcal/mol
x2 = 0.07063
  excess molar enthalpy: 0.0501 ± 0.00115 kcal/mol
x2 = 0.08316
  excess molar enthalpy: 0.059 ± 0.00129 kcal/mol
x2 = 0.119
  excess molar enthalpy: 0.0815 ± 0.00163 kcal/mol
x2 = 0.1747
  excess molar enthalpy: 0.116 ± 0.00217 kcal/mol
x2 = 0.1851
  excess molar enthalpy: 0.123 ± 0.00227 kcal/mol
x2 = 0.2248
  excess molar enthalpy: 0.142 ± 0.00263 kcal/mol
x2 = 0.2423
  excess molar enthalpy: 0.153 ± 0.00263 kcal/mol
x2 = 0.3049
  excess molar enthalpy: 0.179 ± 0.00311 kcal/mol
x2 = 0.3581
  excess molar enthalpy: 0.199 ± 0.00335 kcal/mol
x2 = 0.3605
  excess molar enthalpy: 0.201 ± 0.00359 kcal/mol
x2 = 0.4935
  excess molar enthalpy: 0.23 ± 0.00382 kcal/mol
x2 = 0.5772
  excess molar enthalpy: 0.233 ± 0.00406 kcal/mol
x2 = 0.6522
  excess molar enthalpy: 0.226 ± 0.00382 kcal/mol
x2 = 0.7056
  excess molar enthalpy: 0.214 ± 0.00359 kcal/mol
x2 = 0.8946
  excess molar enthalpy: 0.114 ± 0.00213 kcal/mol
x2 = 0.9545
  excess molar enthalpy: 0.0549 ± 0.00122 kcal/mol
x2 = 0.9792
  excess molar enthalpy: 0.0267 ± 0.000789 kcal/mol

## CCCCCCCCC#N [nonanenitrile] + C[S+](C)[O-]
x2 = 0.05896
  excess molar enthalpy: 0.0512 ± 0.00117 kcal/mol
x2 = 0.07322
  excess molar enthalpy: 0.0623 ± 0.00134 kcal/mol
x2 = 0.09784
  excess molar enthalpy: 0.0826 ± 0.00165 kcal/mol
x2 = 0.1285
  excess molar enthalpy: 0.107 ± 0.00203 kcal/mol
x2 = 0.1721
  excess molar enthalpy: 0.141 ± 0.00263 kcal/mol
x2 = 0.1898
  excess molar enthalpy: 0.153 ± 0.00263 kcal/mol
x2 = 0.2365
  excess molar enthalpy: 0.183 ± 0.00311 kcal/mol
x2 = 0.2408
  excess molar enthalpy: 0.187 ± 0.00335 kcal/mol
x2 = 0.2698
  excess molar enthalpy: 0.204 ± 0.00359 kcal/mol
x2 = 0.2836
  excess molar enthalpy: 0.211 ± 0.00359 kcal/mol
x2 = 0.3841
  excess molar enthalpy: 0.252 ± 0.0043 kcal/mol
x2 = 0.4577
  excess molar enthalpy: 0.272 ± 0.00454 kcal/mol
x2 = 0.5425
  excess molar enthalpy: 0.285 ± 0.00478 kcal/mol
x2 = 0.5442
  excess molar enthalpy: 0.285 ± 0.00478 kcal/mol
x2 = 0.5569
  excess molar enthalpy: 0.285 ± 0.00478 kcal/mol
x2 = 0.703
  excess molar enthalpy: 0.271 ± 0.00454 kcal/mol
x2 = 0.7734
  excess molar enthalpy: 0.245 ± 0.00406 kcal/mol
x2 = 0.8496
  excess molar enthalpy: 0.197 ± 0.00335 kcal/mol
x2 = 0.8991
  excess molar enthalpy: 0.15 ± 0.00263 kcal/mol
x2 = 0.939
  excess molar enthalpy: 0.103 ± 0.00196 kcal/mol
x2 = 0.9712
  excess molar enthalpy: 0.0531 ± 0.0012 kcal/mol
x2 = 0.9917
  excess molar enthalpy: 0.017 ± 0.000621 kcal/mol

## CCCCCC#N [hexanenitrile] + CSCS(C)=O
x2 = 0.01678
  excess molar enthalpy: 0.013 ± 0.000574 kcal/mol
x2 = 0.02979
  excess molar enthalpy: 0.0247 ± 0.000765 kcal/mol
x2 = 0.05841
  excess molar enthalpy: 0.0472 ± 0.0011 kcal/mol
x2 = 0.07605
  excess molar enthalpy: 0.0589 ± 0.00129 kcal/mol
x2 = 0.1435
  excess molar enthalpy: 0.103 ± 0.00198 kcal/mol
x2 = 0.1944
  excess molar enthalpy: 0.13 ± 0.00239 kcal/mol
x2 = 0.2184
  excess molar enthalpy: 0.141 ± 0.00263 kcal/mol
x2 = 0.2608
  excess molar enthalpy: 0.158 ± 0.00287 kcal/mol
x2 = 0.3826
  excess molar enthalpy: 0.188 ± 0.00335 kcal/mol
x2 = 0.4382
  excess molar enthalpy: 0.193 ± 0.00335 kcal/mol
x2 = 0.4785
  excess molar enthalpy: 0.194 ± 0.00335 kcal/mol
x2 = 0.5751
  excess molar enthalpy: 0.187 ± 0.00335 kcal/mol
x2 = 0.7307
  excess molar enthalpy: 0.15 ± 0.00263 kcal/mol
x2 = 0.8373
  excess molar enthalpy: 0.107 ± 0.00203 kcal/mol
x2 = 0.9177
  excess molar enthalpy: 0.0609 ± 0.00131 kcal/mol
x2 = 0.9392
  excess molar enthalpy: 0.0468 ± 0.0011 kcal/mol
x2 = 0.9784
  excess molar enthalpy: 0.0178 ± 0.000645 kcal/mol

## CCCCCCCCCCCCC#N [dodecanecarbonitrile] + C[S+](C)[O-]
x2 = 0.02177
  excess molar enthalpy: 0.0197 ± 0.000669 kcal/mol
x2 = 0.06754
  excess molar enthalpy: 0.0683 ± 0.00143 kcal/mol
x2 = 0.09519
  excess molar enthalpy: 0.0952 ± 0.00184 kcal/mol
x2 = 0.09988
  excess molar enthalpy: 0.104 ± 0.00198 kcal/mol
x2 = 0.1229
  excess molar enthalpy: 0.124 ± 0.00229 kcal/mol
x2 = 0.2202
  excess molar enthalpy: 0.211 ± 0.00359 kcal/mol
x2 = 0.2575
  excess molar enthalpy: 0.237 ± 0.00406 kcal/mol
x2 = 0.2709
  excess molar enthalpy: 0.244 ± 0.00406 kcal/mol
x2 = 0.28
  excess molar enthalpy: 0.253 ± 0.0043 kcal/mol
x2 = 0.4232
  excess molar enthalpy: 0.309 ± 0.00526 kcal/mol
x2 = 0.5464
  excess molar enthalpy: 0.322 ± 0.00526 kcal/mol
x2 = 0.6358
  excess molar enthalpy: 0.318 ± 0.00526 kcal/mol
x2 = 0.7394
  excess molar enthalpy: 0.297 ± 0.00502 kcal/mol
x2 = 0.7753
  excess molar enthalpy: 0.283 ± 0.00478 kcal/mol
x2 = 0.8034
  excess molar enthalpy: 0.269 ± 0.00454 kcal/mol
x2 = 0.8609
  excess molar enthalpy: 0.226 ± 0.00382 kcal/mol
x2 = 0.9001
  excess molar enthalpy: 0.181 ± 0.00311 kcal/mol
x2 = 0.9286
  excess molar enthalpy: 0.144 ± 0.00263 kcal/mol
x2 = 0.9571
  excess molar enthalpy: 0.0958 ± 0.00186 kcal/mol
x2 = 0.9821
  excess molar enthalpy: 0.0459 ± 0.00108 kcal/mol

## CCCCCCCCCCCC#N [n-dodecanenitrile] + C[S+](C)[O-]
x2 = 0.02506
  excess molar enthalpy: 0.0231 ± 0.000741 kcal/mol
x2 = 0.02612
  excess molar enthalpy: 0.0261 ± 0.000765 kcal/mol
x2 = 0.07491
  excess molar enthalpy: 0.0764 ± 0.00155 kcal/mol
x2 = 0.09988
  excess molar enthalpy: 0.104 ± 0.00198 kcal/mol
x2 = 0.1665
  excess molar enthalpy: 0.168 ± 0.00287 kcal/mol
x2 = 0.1791
  excess molar enthalpy: 0.185 ± 0.00335 kcal/mol
x2 = 0.1948
  excess molar enthalpy: 0.194 ± 0.00335 kcal/mol
x2 = 0.2522
  excess molar enthalpy: 0.243 ± 0.00406 kcal/mol
x2 = 0.3366
  excess molar enthalpy: 0.293 ± 0.00502 kcal/mol
x2 = 0.4308
  excess molar enthalpy: 0.327 ± 0.0055 kcal/mol
x2 = 0.562
  excess molar enthalpy: 0.341 ± 0.00574 kcal/mol
x2 = 0.7592
  excess molar enthalpy: 0.298 ± 0.00502 kcal/mol
x2 = 0.8602
  excess molar enthalpy: 0.231 ± 0.00406 kcal/mol
x2 = 0.8956
  excess molar enthalpy: 0.193 ± 0.00335 kcal/mol
x2 = 0.9461
  excess molar enthalpy: 0.114 ± 0.00215 kcal/mol
x2 = 0.9649
  excess molar enthalpy: 0.08 ± 0.0016 kcal/mol
x2 = 0.9886
  excess molar enthalpy: 0.0287 ± 0.000813 kcal/mol

## CCCCCCCCCCCCCC#N [tetradecanenitrile] + C[S+](C)[O-]
x2 = 0.02407
  excess molar enthalpy: 0.0307 ± 0.000837 kcal/mol
x2 = 0.06045
  excess molar enthalpy: 0.0671 ± 0.00141 kcal/mol
x2 = 0.1219
  excess molar enthalpy: 0.133 ± 0.00239 kcal/mol
x2 = 0.1415
  excess molar enthalpy: 0.154 ± 0.00263 kcal/mol
x2 = 0.2193
  excess molar enthalpy: 0.219 ± 0.00382 kcal/mol
x2 = 0.2527
  excess molar enthalpy: 0.244 ± 0.00406 kcal/mol
x2 = 0.3063
  excess molar enthalpy: 0.279 ± 0.00478 kcal/mol
x2 = 0.4181
  excess molar enthalpy: 0.323 ± 0.00526 kcal/mol
x2 = 0.4877
  excess molar enthalpy: 0.339 ± 0.00574 kcal/mol
x2 = 0.6186
  excess molar enthalpy: 0.345 ± 0.00574 kcal/mol
x2 = 0.7619
  excess molar enthalpy: 0.311 ± 0.00526 kcal/mol
x2 = 0.8716
  excess molar enthalpy: 0.229 ± 0.00382 kcal/mol
x2 = 0.8962
  excess molar enthalpy: 0.201 ± 0.00359 kcal/mol
x2 = 0.911
  excess molar enthalpy: 0.176 ± 0.00311 kcal/mol
x2 = 0.9532
  excess molar enthalpy: 0.109 ± 0.00206 kcal/mol
x2 = 0.9692
  excess molar enthalpy: 0.0793 ± 0.0016 kcal/mol
x2 = 0.9809
  excess molar enthalpy: 0.0491 ± 0.00112 kcal/mol

## CCCCCCCCCCCCCC#N [tetradecanenitrile] + CSCS(C)=O
x2 = 0.03538
  excess molar enthalpy: 0.0412 ± 0.001 kcal/mol
x2 = 0.05372
  excess molar enthalpy: 0.0689 ± 0.00143 kcal/mol
x2 = 0.08438
  excess molar enthalpy: 0.103 ± 0.00196 kcal/mol
x2 = 0.1289
  excess molar enthalpy: 0.153 ± 0.00263 kcal/mol
x2 = 0.1565
  excess molar enthalpy: 0.177 ± 0.00311 kcal/mol
x2 = 0.1984
  excess molar enthalpy: 0.21 ± 0.00359 kcal/mol
x2 = 0.3348
  excess molar enthalpy: 0.281 ± 0.00478 kcal/mol
x2 = 0.505
  excess molar enthalpy: 0.304 ± 0.00502 kcal/mol
x2 = 0.6332
  excess molar enthalpy: 0.291 ± 0.00478 kcal/mol
x2 = 0.6721
  excess molar enthalpy: 0.283 ± 0.00478 kcal/mol
x2 = 0.8155
  excess molar enthalpy: 0.229 ± 0.00382 kcal/mol
x2 = 0.8867
  excess molar enthalpy: 0.172 ± 0.00311 kcal/mol
x2 = 0.9123
  excess molar enthalpy: 0.145 ± 0.00263 kcal/mol
x2 = 0.9566
  excess molar enthalpy: 0.0871 ± 0.00172 kcal/mol
x2 = 0.9858
  excess molar enthalpy: 0.0352 ± 0.000908 kcal/mol

## CCCCCCC#N [heptanenitrile] + CSCS(C)=O
x2 = 0.02045
  excess molar enthalpy: 0.0195 ± 0.000669 kcal/mol
x2 = 0.05221
  excess molar enthalpy: 0.048 ± 0.00112 kcal/mol
x2 = 0.08567
  excess molar enthalpy: 0.0762 ± 0.00155 kcal/mol
x2 = 0.09776
  excess molar enthalpy: 0.0854 ± 0.0017 kcal/mol
x2 = 0.1935
  excess molar enthalpy: 0.143 ± 0.00263 kcal/mol
x2 = 0.2208
  excess molar enthalpy: 0.157 ± 0.00287 kcal/mol
x2 = 0.2701
  excess molar enthalpy: 0.177 ± 0.00311 kcal/mol
x2 = 0.3893
  excess molar enthalpy: 0.208 ± 0.00359 kcal/mol
x2 = 0.4914
  excess molar enthalpy: 0.216 ± 0.00382 kcal/mol
x2 = 0.579
  excess molar enthalpy: 0.212 ± 0.00359 kcal/mol
x2 = 0.7478
  excess molar enthalpy: 0.171 ± 0.00311 kcal/mol
x2 = 0.8609
  excess molar enthalpy: 0.111 ± 0.0021 kcal/mol
x2 = 0.936
  excess molar enthalpy: 0.0591 ± 0.00129 kcal/mol
x2 = 0.9576
  excess molar enthalpy: 0.0395 ± 0.00098 kcal/mol
x2 = 0.9714
  excess molar enthalpy: 0.0275 ± 0.000789 kcal/mol
